We go through one compound from patent US20120225889A1, “USE OF MACROCYCLIC LACTONE DERIVATIVES FOR THE TREATMENT OF INFLAMMATORY DISORDERS” (PIRAMAL LIFE SCIENCES LIMITED, priority 2010, published 2012).

In one assay the test system is IL-8. In words: Synovial tissue assay (spontaneous production): IL-8. Type of assay: cell-based. Conditions: Homo sapiens, synovial tissue cells from rheumatoid arthritis patients, 16 h, read-out: IC50 of IL-8 inhibition. The source says: The ability of compounds of the present invention to inhibit spontaneous production of cytokines from freshly isolated human synovial tissue cells was designed as in reference, Lancet, 29, 244-247, (1989) the disclosure of which is incorporated by reference for the teaching of the assay.
Synovial tissue was obtained from rheumatoid arthritis patients undergoing knee replacement surgery. […] Subsequently, the cells were washed 3 times with RPMI 1640 culture medium and resuspended in complete medium (RPMI 1640 culture medium supplemented with 5% FBS and 5% human serum-AB+(Sigma, USA) at a concentration of 1×10^6 cells/mL. The viability of synovial cells was determined by trypan blue dye exclusion and was uniformly ≧98%. For the experiment, 100 μL of cell suspension was added to the wells of a 96-well culture plate (Nunc, USA). Following cell plating, 100 μL of the culture medium and 1 μL of various concentrations of the test compound (test compound was dissolved in DMSO to obtain a stock solution of 20 mM. […] The IC50 values were calculated by a nonlinear regression method using the GraphPad software (Prism 3.03).

Another assay concerns the target T1, p38 MAPK (Homo sapiens, UniProt Q16539).
T1 construct: endogenous in cells; host or cells: Jurkat T-cells (ATCC TIB-152, clone E6-1)
The experiment in a line: p38 MAPK assay in anisomycin stimulated Jurkat T-cells (Western blot). The assay is classed as cell-based. Particulars: 3 μM, phospho-p38 Western blot. As to the method:
The method for identifying inhibitors of p38 MAPK was designed as in reference, Journal of Lipid Research, 40, 1911-1919, (1999), the disclosure of which is incorporated by reference for the teaching of the assay.
Human Jurkat T-cells (ATCC number: TIB-152, clone E6-1, USA) were cultured in culture medium (RPMI 1640 culture medium supplemented with 10% FBS, 100 U/mL penicillin and 100 μg/mL streptomycin) at 37° C., 5% CO2. Culture medium was changed every 2-3 days and always a day prior to the experiment. On the day of the experiment, Jurkat cells were pre-treated with vehicle or test compound at 3 μM, 10 times the IC50 value for IL-6 inhibition in human monocyte assay, for 1 h at 37° C. Subsequently, the cells were stimulated with anisomycin (10 μg/mL; Sigma, USA) for 30 min SB 203580 (1 PM; Sigma, USA) was used as a standard. The sample preparation of the test compound, anisomycin and SB 203580 is as follows: a stock solution (20 mM) of the test compound was prepared in DMSO. […]
Following the stimulation, cells were harvested, rapidly washed with ice-cold PBS and lysed with cold Cell Lytic buffer (Sigma, USA) supplemented with complete protease inhibitor cocktail (Roche, USA) and sodium orthovanadate (Sigma, USA). […] Aliquots of the resulting extracts were analyzed for their protein content using the Coomassie Plus Protein Assay Reagent (Pierce, USA) as per manufacturer's instructions. […]
In general terms: In western blotting, separated proteins are transferred to a membrane and probed.

The subject of the next assay is BCL2. The experiment in a line: Gene expression profile using RTQ-PCR: BCL2. Type of assay: cell-based, human. Particulars: 3 μM, ± SE, N = 3. As to the method: (§1) The effect of the compound of example 7 was measured in stimulated untreated cells from the monocytic cell line (THP-1), human monocytes and synovial cells from rheumatoid arthritis patient. The effect of the compound in the THP-1 cell line was measured in terms of gene expression and was expressed as fold changes as compared to the cell stimulated control with no drug treatment.
(§2) THP-1 cells, human monocytes and synovial cells were treated with compound of example 7 or vehicle (0.5% DMSO). Total RNA isolation using a commercial RNA extraction kit (Qiagen Corporation, Germany) The first-strand cDNA was synthesized from total RNA using first strand cDNA synthesis kit from Invitrogen Corporation (California, USA). This was followed by real time quantitative polymerase chain reaction (RTQ PCR) using gene specific primers and standard thermal program of initial denaturation at 95° C. for 5 min and cycles of 95° C. for 10 seconds, followed by 60° C. for 30 seconds (Realplex PCR machine from Eppendorf, Germany). Quantitative measurement of products made during PCR cycles was normalized against a housekeeping gene (Actin) and was used to measure the gene expression as fold changes as compared to respective control.

The test system of a further assay is CEBPδ. The experiment in a line: Gene expression profile using RTQ-PCR: CEBPδ. Type of assay: cell-based, human. Particulars: 3 μM. As to the method: as §1, §2

T1 sequence (Q16539 whole entry): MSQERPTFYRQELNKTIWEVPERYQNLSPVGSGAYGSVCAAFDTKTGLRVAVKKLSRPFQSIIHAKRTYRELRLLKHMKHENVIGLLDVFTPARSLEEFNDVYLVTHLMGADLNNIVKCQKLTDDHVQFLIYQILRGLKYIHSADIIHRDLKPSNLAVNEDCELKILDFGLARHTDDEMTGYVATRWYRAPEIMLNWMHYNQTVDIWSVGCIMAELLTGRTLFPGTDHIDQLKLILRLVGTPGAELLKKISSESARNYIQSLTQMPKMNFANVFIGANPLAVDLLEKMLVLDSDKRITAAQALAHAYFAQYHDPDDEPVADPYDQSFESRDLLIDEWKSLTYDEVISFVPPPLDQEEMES

For orientation: IC50 means the point on the concentration scale where inhibition reaches its midpoint. Take `C/C=C/C(O)C(C)/C=C/C(=N\O)C(C)C(O)C(C)C1OC(=O)/C(OC)=C/C(C)=C/C(C)C(O)C(CC)C(O)C(C)C/C(C)=C/C=C/C1OC` (stereo not shown) [Compound of example 7, (3Z,5E,13E,15E)-18-((5Z,6E,10E)-3,9-Dihydroxy-5-(hydroxymino)-4,8-dimethyldodeca-6,10-dien-2-yl)-9-ethyl-8,10-dihydroxy-3,17-dimethoxy-5,7,11,13-tetramethyl oxacyclooctadeca-3,5,13,15-tetraen-2-one]: the IC50 with IL-8 worked out at 1300 nM. The “inhibition of p38 MAP kinase” value against p38 MAPK was “did not inhibit”. In addition, the BCL2 gene expression in the assay on BCL2 (Human monocytes, 3 h) is recorded as −1.7 + 0.4 log fold change; in the assay on BCL2 (THP-1 cells, 12 h), −1.3 ± 0.8 log fold change. The CEBPδ gene expression in the assay with CEBPδ (Human monocytes, 3 h, ± SE, N = 3) is on record as −1.4 + 0.4 log fold change; in the assay on CEBPδ (Synovial cells, 12 h, N = 1) it was −1.1 log fold change; in the assay on CEBPδ (THP-1 cells, 12 h, ± SE, N = 3), −1.8 + 1.0 log fold change.
